The numbers were not newly measured in PubChem BioAssay AID1259409 (Chemical Carcinogenesis Research Information System (CCRIS), 2018), which cites them from elsewhere.

In this series the test system is rodent chemically induced tumor inhibition, incidence and multiplicity. The series is described as follows: CCRIS tumor inhibitor studies.

For `COc1ccc2[nH]cc(CCNC(C)=O)c2c1`, the “tumour outcome (control, treated, inhibition, significance)” value is given as 23/25 (92.0%), 15/23 (65.2%), 29%, p<0.01 (Carcinogen: 1,2-DIMETHYLHYDRAZINE [540-73-8], Dose [Inhibitor]: 20 UG/ML IN DRINKING WATER 14 HR/D AT NIGHT TIME FOR 6 MONTHS (STUDY DURATION: 6 MONTHS), Route [Inhibitor]: ORAL, Species: RAT, Strain/Sex: LIO/FEMALE, Target Tissue: Type of Lesion: ASCENDING COLON: TUMOR, Dose [Carcinogen]: 21 MG/KG BW 1X/WK FOR 15 WK (STUDY DURATION: 6 MONTHS), Promoter: NONE); 25/25 (100.0%), 23/23 (100.0%), 0%, not significant (Carcinogen: 1,2-DIMETHYLHYDRAZINE [540-73-8], Dose [Inhibitor]: 20 UG/ML IN DRINKING WATER 14 HR/D AT NIGHT TIME FOR 6 MONTHS (STUDY DURATION: 6 MONTHS), Route [Inhibitor]: ORAL, Species: RAT, Strain/Sex: LIO/FEMALE, Target Tissue: Type of Lesion: DESCENDING COLON: TUMOR, Dose [Carcinogen]: 21 MG/KG BW 1X/WK FOR 15 WK (STUDY DURATION: 6 MONTHS), Promoter: NONE); 8/25 (32.0%), 5/23 (21.7%), 32%, not significant (Carcinogen: 1,2-DIMETHYLHYDRAZINE [540-73-8], Dose [Inhibitor]: 20 UG/ML IN DRINKING WATER 14 HR/D AT NIGHT TIME FOR 6 MONTHS (STUDY DURATION: 6 MONTHS), Route [Inhibitor]: ORAL, Species: RAT, Strain/Sex: LIO/FEMALE, Target Tissue: Type of Lesion: DUODENUM: TUMOR, Dose [Carcinogen]: 21 MG/KG BW 1X/WK FOR 15 WK (STUDY DURATION: 6 MONTHS), Promoter: NONE); 4/25 (16.0%), 1/23 (4.3%), 73%, p<0.05 (Carcinogen: 1,2-DIMETHYLHYDRAZINE [540-73-8], Dose [Inhibitor]: 20 UG/ML IN DRINKING WATER 14 HR/D AT NIGHT TIME FOR 6 MONTHS (STUDY DURATION: 6 MONTHS), Route [Inhibitor]: ORAL, Species: RAT, Strain/Sex: LIO/FEMALE, Target Tissue: Type of Lesion: JEJUNUM AND ILIUM: TUMOR, Dose [Carcinogen]: 21 MG/KG BW 1X/WK FOR 15 WK (STUDY DURATION: 6 MONTHS), Promoter: NONE); 11/25 (44.0%), 11/23 (47.8%), -9%, not significant (Carcinogen: 1,2-DIMETHYLHYDRAZINE [540-73-8], Dose [Inhibitor]: 20 UG/ML IN DRINKING WATER 14 HR/D AT NIGHT TIME FOR 6 MONTHS (STUDY DURATION: 6 MONTHS), Route [Inhibitor]: ORAL, Species: RAT, Strain/Sex: LIO/FEMALE, Target Tissue: Type of Lesion: RECTUM: TUMOR, Dose [Carcinogen]: 21 MG/KG BW 1X/WK FOR 15 WK (STUDY DURATION: 6 MONTHS), Promoter: NONE); 23/24 (95.8%), 21/28 (75%), 21.5%, p<0.05 (Carcinogen: 7, 12-DIMETHYLBENZ(A)ANTHRACENE [57-97-6], Dose [Inhibitor]: 20 UG/ML IN DRINKING WATER, 17 HR/D BEGINNING 5 D BEFORE FIRST CARCINOGEN DOSE FOR 13 WK (STUDY DURATION: 13 WK), Route [Inhibitor]: ORAL, Species: RAT, Strain/Sex: SPRAGUE-DAWLEY/FEMALE, Target Tissue: Type of Lesion: MAMMARY GLAND: TUMOR, Dose [Carcinogen]: 10 MG THREE TIMES BETWEEN POSTNATAL DAYS 45-59). For the same molecule, the “tumour outcome (control, treated, inhibition, significance)” value was 75%, 43%, 43%, p=0.04 (at 6 mo) (Carcinogen: 7,12-DIMETHYLBENZ[A]ANTHRACENE [57-97-6], Dose [Inhibitor]: 10 MG/KG BW DAILY BETWEEN 45 AND 59 D OF AGE, Route [Inhibitor]: INTRAGASTRIC (GAVAGE) IN HYDROXYETHYLCELLULOSE SOLUTION, Species: RAT, Strain/Sex: SPRAGUE-DAWLEY/FEMALE, Target Tissue: Type of Lesion: MAMMARY: ADENOCARCINOMA, Dose [Carcinogen]: 75 MG/KG BW IN SESAME OIL AT 60 D OF AGE (STUDY DURATION: 1 YR)); 75%, 35%, 53%, p=0.01 (at 6 mo) (Carcinogen: 7,12-DIMETHYLBENZ[A]ANTHRACENE [57-97-6], Dose [Inhibitor]: 10 MG/KG BW DAILY FOR 6 MO AFTER CARCINOGEN ADMINISTRATION, Route [Inhibitor]: INTRAGASTRIC (GAVAGE), Species: RAT, Strain/Sex: SPRAGUE-DAWLEY/FEMALE, Target Tissue: Type of Lesion: MAMMARY: ADENOCARCINOMA, Dose [Carcinogen]: 75 MG/KG BW AT 55 D OF AGE (STUDY DURATION: 1 YR)); 7/20 (35%), 3/20 (15%), 57%, not significant (Carcinogen: 7,12-DIMETHYLBENZ[A]ANTHRACENE [57-97-6], Dose [Inhibitor]: 20 UG/ML IN DRINKING WATER 15 HR/D FOR 4 MONTHS BEGINNING AT THE TIME OF THE FIRST CARCINOGEN DOSE (STUDY DURATION: 6 MO, Route [Inhibitor]: ORAL, Species: MOUSE, Strain/Sex: CBA/FEMALE, Target Tissue: Type of Lesion: VAGINA AND CERVIX: TUMOR, Dose [Carcinogen]: 0.1% IN TRIETHYLENEGLYCOL IN A POLYURETHANE SPONGE 3 HR/D 2 D/WK FOR 2 MONTHS (STUDY DURATION: 6 MO), Promoter: NONE); 100%, 42%, 58%, p<0.001 (Carcinogen: 7,12-DIMETHYLBENZ[A]ANTHRACENE, 57-97-6, Dose [Inhibitor]: 0, 20 UG/ML IN DRINKING WATER 17 HR/D 4 D/WK FOR 26 WK BEGINNING 45 D OF AGE (STUDY DURATION: 26 WK), Route [Inhibitor]: ORAL, Species: RAT, Strain/Sex: SD/FEMALE, Target Tissue: Type of Lesion: MAMMARY GLAND: TUMOR, Dose [Carcinogen]: 10 UG/ANIMAL IN CORN OIL INTRAGASTRICALLY ON 45, 50, 55 D OF AGE); 16/24 (66.6%), 15/25 (60.0%), 10%, not significant (Carcinogen: 7,12-DIMETHYLBENZ[A]ANTHRACENE, 57-97-6, Dose [Inhibitor]: 0, 20 UG/ML IN DRINKING WATER FOR 17 HR/D FOR THE DURATION OF STUDY (STUDY DURATION: 180 D), Route [Inhibitor]: ORAL, Species: RAT, Strain/Sex: SPRAGUE-DAWLEY/FEMALE, Target Tissue: Type of Lesion: MAMMARY GLAND: TUMOR, Dose [Carcinogen]: 20 MG/ANIMAL GAVAGE ONCE 10 D POST INHIBITOR TREATMENT (STUDY DURATION: 178 D), Promoter: NONE); 48.3%, 50.0%, -3.5%, not significant (Carcinogen: GAMMA RAYS: 7,12-DIMETHYLBENZ[A]ANTHRACENE [57-97-6], Dose [Inhibitor]: 0, 100 UG/ML IN DRINKING WATER FOR 28 WK (STUDY DURATION: 28 WK), Route [Inhibitor]: ORAL, Species: RAT, Strain/Sex: WISTAR: HAN/FEMALE, Target Tissue: Type of Lesion: MAMMARY GLAND: TUMOR, Dose [Carcinogen]: 96 MGY FORM CO-60 SOURCE FOR 2 WK (TOTAL ACCUMULATED DOSE 1.44 GY), THEN 3 DOSES OF 10 MG DMBA BY GAVAGE (STUDY DURATION, Promoter: NONE).
